This is an account of results in publication PMC7893776, “Selecting an anti-malarial clinical candidate from two potent dihydroisoquinolones” (Malaria Journal, 2021).

Where two headings read alike, the source gives them in different places.

A short description of the data set: Rat pharmacokinetics, single PO or IV dose. The settings on record: for fraction of the IV dose recovered in urine: 24-h sampling period; for AUC(0-inf): all dose levels 50–200 mg/kg, read-out: mean AUCinf. The format is in vivo, male Sprague Dawley rats. The source says:
Studies were undertaken to determine the plasma pharmacokinetics of SJ733 and SJ311. These studies included: (i) single oral gavage (PO) or intravenous (IV) dose administration to female C57BL/6 mice; (ii) single PO or IV dose administration to male Sprague Dawley (SD) rats; (iii) single PO or IV dose administration to male beagle dogs; (iv) toxicokinetic (TK) study following single PO administration to male SD rats. The PO and IV formulation used for mouse studies at SJCRH was 1% hydroxypropyl-beta-cyclodextrin (w/v), 10% ethanol (v/v), 10% propylene glycol (v/v), 40% PEG-400 (v/v) and 39% PBS (pH 7.4) isotonic (v/v). Compounds were dosed orally as suspensions, and intravenously as filtered solutions. Compound concentrations were confirmed post filtration using UV spectroscopy. The IV formulation used for rat studies (Monash University) was the same as that used for mice. For PO dosing to rats (Monash University) at 2 mg/kg, a suspension formulation was used containing 0.5% (w/v) hydroxypropyl methylcellulose, 0.5% (v/v) benzyl alcohol and 0.4% (v/v) Tween 80. The formulation used for rat studies at SRI (PO, high dose) was the same as that used in mouse PK studies. The formulation for the high dose TK study at SRI was 0.5% methylcellulose in sterile water. The formulation used for dog studies was the same as that used in mouse PK studies. The PO and IV PK of SJ733 and SJ311 were studied in overnight-fasted male Sprague Dawley rats. Rats had access to water ad libitum throughout the pre- and post-dose sampling period, and access to food was re-instated 4 h post-dose. […] Once collected, blood samples were centrifuged, supernatant plasma was removed and stored frozen (− 20 °C) until LC–MS analysis within 1 week of collection. The high dose levels of both compounds (50, 100, 200 mg/kg, PO, (+)-SJ733/311) were also independently tested by SRI, with a single oral gavage administration. Blood (through jugular vein) and urine were collected at time points up to 72 and 24 h post dose, respectively. Supernatant plasma was removed following centrifugation and stored frozen (− 70 °C) until LC–MS analysis. For toxicology studies, male Sprague Dawley rats were administered 50, 100, 250, 500, or 750 mg/kg of (r)-SJ733 or (r)-SJ311 by oral gavage (one dose per animal). Body weights were recorded on Day 1 prior to dose administration and on Day 4. Blood samples (400 µL) were collected at 4 and 24 h post drug administration from the retro-orbital sinus. Potassium EDTA treated plasma was collected and kept frozen at -70 °C for bioanalytical analysis. For studies at Monash University, rat plasma and urine samples were extracted utilizing protein precipitation with a twofold volume ratio of acetonitrile. SJ733, SJ311, and diazepam (IS) were detected using LC–MS/MS instrumentation. Aliquots (3 µL) were injected onto a Waters Acquity UPLC equipped with a Waters Micromass Xevo TQ MS/MS and separated using a Supelco Ascentis Express RP Amide column (50 × 2.1 mm, 2.7 µm) with a methanol–water gradient containing 0.05% formic acid. Calibration standards were prepared by spiking blank matrix (plasma or urine) and the calibration range was from 1 to 10,000 ng/mL for plasma or 2.5 to 5000 ng/mL for urine. Plasma and urine samples from the high dose rat PK studies were analyzed by SRI. In both matrices, the sample volume was 50 μL, and assay entailed the addition of 50 μL of internal standard solution to the standards and study samples. The compounds were used as reciprocal standards for one another (427 nM SJ733 in Milli-Q-Water for SJ571311 and 437 nM SJ311 in Milli-Q-Water for SJ733). These mixtures were then extracted with 1000 μL of ethyl acetate by vortexing for 10 min on a multi-tube vortex mixer at maximum speed followed by separation of the organic and aqueous phases by centrifugation (18,000×g, 5 min). […]

The mark [1] stands for this setting: male, Sprague Dawley, plasma, PO.
Setting [2] is: male, Sprague Dawley, plasma, PO, read-out: terminal half-life, mean t1/2.

Turning to `N#Cc1cc(NC(=O)C2c3ccccc3C(=O)N(CC(F)(F)F)C2c2cccnc2)ccc1F` (racemic) [(r)-SJ733], the Tmax (in vivo, po, 19.8 mg/kg) was found to be 1.0 h.

With `N#Cc1cc(NC(=O)[C@H]2c3ccccc3C(=O)N(CC(F)(F)F)[C@@H]2c2cccnc2)ccc1F` (racemic) [SJ733], the “fraction of the IV dose recovered in urine” value (IV) is given as roughly 1.5%. The Half-life runs as follows: (male, Sprague Dawley, plasma, IV, isomers and racemate at similar doses, read-out: IV half-lives) 5 to 18 h; under setting [2], 7.7 to 10.3 h. Also, the AUC(0-inf) under setting [1] fell in the range of 96.3 to 330 µM·h. Also, the bioavailability (male, Sprague Dawley, plasma, po, summary over the oral doses studied, read-out: Rat F (oral bioavailability)) was 60 to 100%. Besides, the clearance (male, Sprague Dawley, plasma, read-out: measured in vivo clearance (converted)) is roughly 11.7 mL/min/kg. Moreover, under “summary over the oral doses studied”, the “Rat F (oral bioavailability)” value is recorded as 63-122%.

`N#Cc1cc(NC(=O)[C@H]2c3ccccc3C(=O)N(CC(F)(F)F)[C@@H]2c2cn[nH]c2)ccc1F` [(+)-SJ311]: for the setting “in vivo, po, 20.4 mg/kg”, the Half life is 7.9, 7.9 h. For the same compound, for the setting “in vivo, po, 50 mg/kg”, the AUCinf turned out to be 34.1 ± 8.7 µM·h, the CL/F was determined as 56.7 ± 16.7 mL/min/kg, the peak level (Cmax) was 4.4 ± 2 µM and the F% stood at 20.5%. Under “in vivo, po, 50 mg/kg”, the Half life was found to be 3.5 ± 0.4 h, the Tmax is listed as 1.2 ± 0.8 h and the V/F worked out at 17 ± 7.0 L/kg. Under “in vivo, po, 100 mg/kg”, this compound gave an AUCinf of 61.9 ± 11.5 µM·h, an apparent clearance (CL/F) of 60 ± 12 mL/min/kg, a Cmax of 7.1 ± 0.81 µM and a F% of 18.6%. For the same compound, under “in vivo, po, 100 mg/kg”, the Half life is 4.3 ± 2.2 h, the Tmax was found to be 4 h and the V/F is reported as 21 ± 8.0 L/kg. For the same compound, for the setting “in vivo, po, 200 mg/kg”, the AUCinf turned out to be 65.8 ± 12.6 µM·h, the CL/F worked out at 112 ± 8.3 mL/min/kg, the Cmax is 9.4 ± 5.4 µM and the Dose in urine is listed as 1.1 ± 0.4%. Besides, for the setting “in vivo, po, 200 mg/kg”, the F% is on record as 9.9%, the Half life amounted to 4 h, the Tmax is on record as 3.2 ± 4.2 h and the V/F came out at 38 L/kg.

Where the note is “in vivo, iv, 0.1 mg/kg”, `N#Cc1cc(NC(=O)[C@H]2c3ccccc3C(=O)N(CC(F)(F)F)[C@@H]2c2cccnc2)ccc1F` [(+)-SJ733] had an AUCinf of 14.7 ± 0.7 µM·h, a CL of 11.3 ± 0.33 mL/min/kg, a Dose in urine of 1.6 ± 0.5% and a Half-life of 9.2 ± 0.4 h. For the setting “in vivo, iv, 0.1 mg/kg”, this compound displayed a Vss of 3.3 ± 0.2 L/kg. Where the note is “in vivo, po, 1.7 mg/kg”, the AUCinf was 1.9 ± 0.6^ c h.µM, the maximum concentration (Cmax) worked out at 0.7 ± 0.1 µM, the Dose in urine amounted to 0.5 ± 0.3% and the F% was 36.7 ± 12%. In addition, the Tmax (in vivo, po, 1.7 mg/kg) is 0.7 ± 0.3 h. For the setting “in vivo, po, 1.9 mg/kg”, this compound came in with an AUCinf of 6.6 ± 1.2 µM·h, a peak concentration (Cmax) of 0.9 ± 0.1 µM, a Dose in urine of 1.2 ± 0.4% and a F% of 111 ± 19%. Besides, for the setting “in vivo, po, 1.9 mg/kg”, the Half life is reported as 11.3 ± 6.0 h and the Tmax came out at 3.0 ± 0.9 h. Under “in vivo, po, 50 mg/kg”, this compound displayed an AUCinf of 96.3 ± 5.8 µM·h, an apparent clearance CL/F of 18.3 ± 1.7 mL/min/kg, a Cmax of 11.1 ± 1.2 µM and a F% of 74.5%. Further, under “in vivo, po, 50 mg/kg”, the Half life is 7.7 ± 3.2 h, the Tmax was 4 h and the V/F is recorded as 12 ± 5.0 L/kg. Under “in vivo, po, 100 mg/kg”, this compound gave an AUCinf of 180 ± 23.2 µM·h, an apparent clearance (CL/F) of 20 ± 1.7 mL/min/kg, a maximum concentration (Cmax) of 16.6 ± 3.2 µM and a F% of 69.6%. Also, where the note is “in vivo, po, 100 mg/kg”, the Half life worked out at 10.3 ± 6.9 h, the Tmax was found to be 3.0 ± 1.7 h and the V/F was determined as 17 ± 9.0 L/kg. For the setting “in vivo, po, 200 mg/kg”, the AUCinf worked out at 330 ± 78.4 µM·h, the CL/F was determined as 21.7 ± 5 mL/min/kg, the highest level (Cmax) was 27.9 ± 3.8 µM and the Dose in urine stood at 0.2 ± 0.1%. Also, for the setting “in vivo, po, 200 mg/kg”, the F% is on record as 63.8%, the Half life was 7.7 ± 3.3 h, the Tmax turned out to be 4.0 ± 3.5 h and the V/F turned out to be 15 ± 9.0 L/kg.

For `N#Cc1cc(NC(=O)[C@H]2c3ccccc3C(=O)N(CC(F)(F)F)[C@@H]2c2cn[nH]c2)ccc1F` [SJ311], the “fraction of the IV dose recovered in urine” value (IV) is “ca. 22%”. Under setting [1], the AUC(0-inf) is 34.1 to 65.8 µM·h. For the same compound, the Half-life under setting [2] is 3.5 to 7.9 h.

For orientation: Tmax means the time from dosing to the highest level. The term bioavailability denotes the share of a dose that reaches the circulation, judged against a reference dose that is usually intravenous. What is called CL/F is clearance divided by bioavailability, as obtained after extravascular dosing. Usually Cmax stands for the peak of the concentration-time curve.
